Source: PubChem BioAssay AID330 (DTP/NCI, 2004)
Values joined by “and” are separate entries in the source; they are usually repeats but may differ in a detail not shown here. Identical values can stand only once. Inconclusive results and toxic doses are left out. How the source made its calls: active means survival T/C of 150% or more; inactive means T/C below 125% in these data.

Tested on: P388 leukemia ip, CD2F1 mice, survival T/C
Assay: NCI In Vivo Anticancer Drug Screen. Data for tumor model P388 Leukemia (intraperitoneal) in CD2F1 (CDF1) mice
Conditions: endpoint: median survival time, higher = longer survival
Summary of the method: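 Mice carrying the transplanted tumor received test compound or vehicle. Survival was recorded in each group, and the value is the treated-group measurement divided by that of the vehicle-treated control group.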

[1] = dose: 12.5 mg/kg/injection, schedule: Q01DX009 (ip), vehicle: water
[2] = dose: 25.0 mg/kg/injection, schedule: Q01DX009 (ip), vehicle: water
[3] = dose: 50.0 mg/kg/injection, schedule: Q01DX009 (ip), vehicle: water
[4] = dose: 100.0 mg/kg/injection, schedule: Q01DX009 (ip), vehicle: water
[5] = dose: 100.0 mg/kg/injection, schedule: Q01DX009 (ip), vehicle: saline with Tween-80
[6] = dose: 25.0 mg/kg/injection, schedule: Q01DX005 (ip), vehicle: saline with Tween-80
[7] = dose: 6.25 mg/kg/injection, schedule: Q01DX005 (ip), vehicle: Klucel (hydroxypropylcellulose) (HPC)
[8] = dose: 12.5 mg/kg/injection, schedule: Q01DX005 (ip), vehicle: Klucel (hydroxypropylcellulose) (HPC)
[9] = dose: 50.0 mg/kg/injection, schedule: Q01DX009 (ip), vehicle: saline
[10] = dose: 60.0 mg/kg/injection, schedule: Q01DX005 (ip), vehicle: saline with Tween-80
[11] = dose: 120.0 mg/kg/injection, schedule: Q01DX005 (ip), vehicle: saline with Tween-80
[12] = dose: 240.0 mg/kg/injection, schedule: Q01DX005 (ip), vehicle: saline with Tween-80
[13] = dose: 100.0 mg/kg/injection, schedule: Q04DX003 (ip), vehicle: Klucel (hydroxypropylcellulose) (HPC)
[14] = dose: 200.0 mg/kg/injection, schedule: Q04DX003 (ip), vehicle: Klucel (hydroxypropylcellulose) (HPC)
[15] = dose: 50.0 mg/kg/injection, schedule: Q01DX009 (ip), vehicle: saline with Tween-80
[16] = dose: 200.0 mg/kg/injection, schedule: Q01DX009 (ip), vehicle: saline with Tween-80
[17] = dose: 25.0 mg/kg/injection, schedule: Q04DX003 (ip), vehicle: saline with Tween-80
[18] = dose: 50.0 mg/kg/injection, schedule: Q04DX003 (ip), vehicle: saline with Tween-80
[19] = dose: 100.0 mg/kg/injection, schedule: Q04DX003 (ip), vehicle: saline with Tween-80
[20] = dose: 200.0 mg/kg/injection, schedule: Q04DX003 (ip), vehicle: saline with Tween-80
[21] = dose: 400.0 mg/kg/injection, schedule: Q04DX003 (ip), vehicle: Klucel (hydroxypropylcellulose) (HPC)

Measured: T/C

O=C1NC(CN2CCCC(O)C2)C(=O)NC1CN1CCCC(O)C1 (configuration not stated)
inactive: [1] 110 % of control and 95 % of control | [2] 96 % of control and 90 % of control | [3] 96 % of control and 110 % of control | [4] 122 % of control and 114 % of control | dose: 200.0 mg/kg/injection, schedule: Q01DX009 (ip), vehicle: water 116 % of control

Cc1ccc2nc(NC(=S)S)sc2c1
inactive: dose: 6.25 mg/kg/injection, schedule: Q01DX009 (ip), vehicle: Klucel (hydroxypropylcellulose) (HPC) 100 % of control | dose: 12.5 mg/kg/injection, schedule: Q01DX009 (ip), vehicle: Klucel (hydroxypropylcellulose) (HPC) 107 % of control | dose: 25.0 mg/kg/injection, schedule: Q01DX009 (ip), vehicle: Klucel (hydroxypropylcellulose) (HPC) 113 % of control | dose: 100.0 mg/kg/injection, schedule: Q01DX009 (ip), vehicle: Klucel (hydroxypropylcellulose) (HPC) 87 % of control

Cc1ccc(S(=O)(=O)CC(=O)c2ccc(Br)cc2)cc1
inactive: [5] 92 % of control

Cn1c(-c2ccc(Br)cc2)cc2[nH]c(=S)nc(N)c2c1=O
inactive: [6] 105 % of control | dose: 50.0 mg/kg/injection, schedule: Q01DX005 (ip), vehicle: saline with Tween-80 100 % of control | dose: 100.0 mg/kg/injection, schedule: Q01DX005 (ip), vehicle: saline with Tween-80 102 % of control | dose: 200.0 mg/kg/injection, schedule: Q01DX005 (ip), vehicle: saline with Tween-80 96 % of control

CC[OH+]CC[OH+]CC[OH+]C1CCCC2CCC[N-]C21.[Cl][Cu][Cl] (configuration not stated)
inactive: [7] 97 % of control | [8] 92 % of control

Cc1cc(OC(=O)Nc2cc([N+](=O)[O-])ccc2C)c(C)cc1I
inactive: dose: 12.5 mg/kg/injection, schedule: Q01DX009 (ip), vehicle: saline 99 % of control | dose: 25.0 mg/kg/injection, schedule: Q01DX009 (ip), vehicle: saline 97 % of control | [9] 100 % of control and 91 % of control | dose: 100.0 mg/kg/injection, schedule: Q01DX009 (ip), vehicle: saline 92 % of control | dose: 200.0 mg/kg/injection, schedule: Q01DX009 (ip), vehicle: saline 100 % of control

COC(=O)c1cc(-c2ccc(OC)cc2)[nH]c(=O)c1C#N
inactive: [10] 100 % of control | [11] 91 % of control

[Cl][Sn]([O][Sn]([Cl])([c]1ccccc1)[CH]1CCCCC1)([c]1ccccc1)[CH]1CCCCC1 (configuration not stated)
inactive: dose: 0.19 mg/kg/injection, schedule: Q01DX005 (ip), vehicle: saline 100 % of control | dose: 0.39 mg/kg/injection, schedule: Q01DX005 (ip), vehicle: saline 105 % of control | dose: 0.79 mg/kg/injection, schedule: Q01DX005 (ip), vehicle: saline 117 % of control

c1ccc2c3c([nH]c2c1)C1CC2CCCCC2CN1CC3 (configuration not stated)
inactive: [10] 94 % of control | [11] 111 % of control

CO[C@@]12[C@@H]3N[C@@H]3CN1C1=C(C(=O)C(N3CCCC3)=C(C)C1=O)[C@@H]2COC(N)=O
active: dose: 0.78 mg/kg/injection, schedule: Q01DX005 (ip), vehicle: saline with Tween-80 193 % of control | dose: 3.75 mg/kg/injection, schedule: Q01DX005 (ip), vehicle: saline with Tween-80 186 % of control | dose: 10.4 mg/kg/injection, schedule: Q01DX005 (ip), vehicle: saline with Tween-80 214 % of control | dose: 17.4 mg/kg/injection, schedule: Q01DX005 (ip), vehicle: saline with Tween-80 214 % of control
inactive: [6] 87 % of control

ClCCc1cnc[nH]1
inactive: dose: 6.25 mg/kg/injection, schedule: Q01DX009 (ip), vehicle: water 101 % of control | [1] 101 % of control | [2] 108 % of control | [3] 110 % of control | [4] 95 % of control

COC(=O)C(/C=[N+](\[O-])C1CCCCC1)=C(\C=[N+](/[O-])C1CCCCC1)C(=O)OC
inactive: [10] 102 % of control | [11] 87 % of control | [12] 91 % of control

CNc1nc(-c2ccccc2)c(-c2ccccc2)[nH]1
inactive: dose: 6.25 mg/kg/injection, schedule: Q04DX002 (ip), vehicle: saline 105 % of control | dose: 12.5 mg/kg/injection, schedule: Q04DX002 (ip), vehicle: saline 100 % of control | dose: 25.0 mg/kg/injection, schedule: Q04DX002 (ip), vehicle: saline 97 % of control

Cc1ccc(N2CCN(C(=O)C3=Cc4ccccc4OC3)CC2)cc1C
inactive: [13] 100 % of control | [14] 88 % of control

C=CC(=NC(C)(C)C)Nc1ccccc1OC
inactive: dose: 1.56 mg/kg/injection, schedule: Q01DX009 (ip), vehicle: saline 99 % of control and 89 % of control | dose: 3.12 mg/kg/injection, schedule: Q01DX005 (ip), vehicle: Klucel (hydroxypropylcellulose) (HPC) 117 % of control | dose: 3.12 mg/kg/injection, schedule: Q01DX009 (ip), vehicle: saline 111 % of control and 86 % of control and 98 % of control | [7] 117 % of control | dose: 6.25 mg/kg/injection, schedule: Q01DX009 (ip), vehicle: saline 102 % of control and 120 % of control and 95 % of control | [8] 114 % of control

CCOC=C=CCOCC
inactive: dose: 60.0 mg/kg/injection, schedule: Q01DX005 (ip), vehicle: saline 100 % of control | dose: 120.0 mg/kg/injection, schedule: Q01DX005 (ip), vehicle: saline 96 % of control | dose: 240.0 mg/kg/injection, schedule: Q01DX005 (ip), vehicle: saline 96 % of control

CC(C)(C)CC(C)(C)c1ccc(OCc2ccc(Cl)c(Cl)c2)cc1
inactive: [15] 100 % of control | [5] 100 % of control | [16] 91 % of control

CCCc1c(C(=O)O)c(-c2cccc3ccccc23)c(CCC)c2c1-c1cccc3cccc-2c13
inactive: [15] 105 % of control | [5] 102 % of control | [16] 100 % of control

O=C(OCC1OC(O)(COC(=O)c2ccccc2)C(OC(=O)c2ccccc2)C1OC(=O)c1ccccc1)c1ccccc1 (configuration not stated)
inactive: [8] 97 % of control | dose: 25.0 mg/kg/injection, schedule: Q01DX005 (ip), vehicle: Klucel (hydroxypropylcellulose) (HPC) 98 % of control | dose: 50.0 mg/kg/injection, schedule: Q01DX005 (ip), vehicle: Klucel (hydroxypropylcellulose) (HPC) 90 % of control and 92 % of control

COc1ccc(C2=NNC(=O)C3NC(=O)C(C#N)=C(C(=O)NN)C23c2ccc(OC)cc2)cc1 (configuration not stated)
inactive: [10] 99 % of control | [11] 91 % of control | [12] 89 % of control

[NH-]C(CC(N)=O)C(=O)O.[NH-]C(CC(N)=O)C(=O)O.[Pd+2] (configuration not stated)
inactive: dose: 6.25 mg/kg/injection, schedule: Q04DX003 (ip), vehicle: saline with Tween-80 92 % of control | dose: 12.5 mg/kg/injection, schedule: Q04DX003 (ip), vehicle: saline with Tween-80 96 % of control | [17] 100 % of control | [18] 98 % of control | [19] 107 % of control | [20] 100 % of control

c1c[nH]cn1
inactive: [9] 97 % of control

OC(c1ccccc1)C1CC=CCC1 (configuration not stated)
inactive: dose: 12.5 mg/kg/injection, schedule: Q04DX003 (ip), vehicle: saline 97 % of control | [17] 101 % of control and 98 % of control | dose: 25.0 mg/kg/injection, schedule: Q04DX003 (ip), vehicle: saline 105 % of control | [18] 111 % of control and 96 % of control | dose: 50.0 mg/kg/injection, schedule: Q04DX003 (ip), vehicle: saline 109 % of control | [19] 99 % of control | dose: 100.0 mg/kg/injection, schedule: Q04DX003 (ip), vehicle: saline 103 % of control | [20] 99 % of control

C=C(C(=O)OC)C1C=CCCCC1 (configuration not stated)
inactive: dose: 100.0 mg/kg/injection, schedule: Q01DX001 (ip), vehicle: saline with Tween-80 114 % of control | dose: 200.0 mg/kg/injection, schedule: Q01DX001 (ip), vehicle: saline with Tween-80 113 % of control | dose: 400.0 mg/kg/injection, schedule: Q01DX001 (ip), vehicle: saline with Tween-80 105 % of control

O=C(Nc1ccc(Cl)cc1)OCC1C2C=CC(C2)C1CO (configuration not stated)
inactive: [13] 101 % of control | [14] 95 % of control | [21] 104 % of control

Clc1ccc(CN2COc3c(ccc4cccnc34)C2)cc1
inactive: dose: 50.0 mg/kg/injection, schedule: Q04DX003 (ip), vehicle: Klucel (hydroxypropylcellulose) (HPC) 101 % of control and 115 % of control | [13] 101 % of control and 105 % of control and 97 % of control | [14] 100 % of control and 103 % of control and 123 % of control | [21] 93 % of control
